How the values were obtained:
[1] = target: T1, human cloned 5-HT2B receptors (Homo sapiens, UniProt P41595); test: Human cloned 5-HT2B receptor binding assay ([3H]LSD, CHO-K1 membranes); conditions: displacement of [3H]LSD (1 nM), read-out: 5-HT2B pKi (converted)
T1 construct: expressed in transfected cells; host or cells: CHO-K1 cells
Description: The binding affinity of the compounds for human cloned 5-HT2B receptors was determined using the following assay.
CHO-K1 cells expressing cloned 5-HT2B receptor were maintained in Ultra-CHO medium containing 400 μg/ml of G418, 100 U/ml penicillin, 100 μg/ml streptomycin, 2.5 μg/ml fungizone and 1% foetal bovine serum, in 95/5% O2/CO2 at 37° C. The cells were harvested using 0.25% trypsin and were centrifuged at 800 rpm for 8 minutes. The cells were homogenised in 50 mM HEPES buffer containing 1 mM disodium EDTA and 1 mM PMSF at pH 7.4, using a Dounce homogeniser (20 strokes). The homogenate was centrifuged at 2280 rpm (1000 g) and 4° C. for 10 minutes, after which the supernatant was removed by decanting. The pellet was re-homogenised as above, and the resulting supernatant removed and combined with that already obtained. The supernatant solution was then centrifuged at 18300 rpm (40000 g) for 10 minutes at 4° C. using a Sorvall centrifuge. The supernatant was removed, and the pellet was re-suspended in 50 mM buffer at pH 7.4 using a Ultra-turrax T25 Polytron, before centrifugation again at 40000 g as above. This wash procedure was repeated, after which the membrane preparation was stored at a concentration of 1 mg/ml at −80° C. until use.
The membranes were thawed rapidly and diluted in assay buffer containing Tris-HCl (50 mM, pH 7.4), ascorbic acid (0.1%) and calcium chloride (4 mM). The membranes were homogenised to resuspend them, prior to adding 10 or 15 μg of membranes to assay wells containing [^3H]LSD (1 nM), assay buffer (50 mM Tris, 4 mM calcium chloride and 0.1% ascorbic acid) containing pargyline (10 μM), and the test compounds (1×10^−10 to 1×10^−4M). Non specific binding was determined in the presence of 100 μM 5-HT. After 30 minutes incubation at 37° C., the assay mixture was filtered through a combination of GF-C and GF-B filters, pre-soaked in 1% polyethyleneimine, using a Brandel cell harvester, and were washed three times using 50 mM Tris-HCl. Radioactivity retained on the filters was determined by liquid scintillation counting. For each test compound, the concentration that inhibited binding of [3H]LSD by 50% was determined using curve fitting software (Prism). Kd values (concentration of LSD required to occupy 50% of the receptor binding sites at equilibrium) determined from saturation binding studies were then used to calculate inhibition dissociation constants (Ki) using the following equation: […]
This approach follows that set out in Kenakin, T.P. Pharmacologic analysis of drug-receptor interaction. Raven Press, New York, 2nd Edition.

[2] = target: T2, cloned human 5-HT2A receptor (Homo sapiens, UniProt P28223); test: Human 5-HT2A receptor binding assay ([3H]ketanserin, CHO-K1 membranes); conditions: displacement of [3H]ketanserin (1 nM), read-out: 5-HT2A pKi (converted)
T2 construct: purchased Euroscreen; host or cells: CHO-K1 cells
T2 sequence (P28223 whole entry): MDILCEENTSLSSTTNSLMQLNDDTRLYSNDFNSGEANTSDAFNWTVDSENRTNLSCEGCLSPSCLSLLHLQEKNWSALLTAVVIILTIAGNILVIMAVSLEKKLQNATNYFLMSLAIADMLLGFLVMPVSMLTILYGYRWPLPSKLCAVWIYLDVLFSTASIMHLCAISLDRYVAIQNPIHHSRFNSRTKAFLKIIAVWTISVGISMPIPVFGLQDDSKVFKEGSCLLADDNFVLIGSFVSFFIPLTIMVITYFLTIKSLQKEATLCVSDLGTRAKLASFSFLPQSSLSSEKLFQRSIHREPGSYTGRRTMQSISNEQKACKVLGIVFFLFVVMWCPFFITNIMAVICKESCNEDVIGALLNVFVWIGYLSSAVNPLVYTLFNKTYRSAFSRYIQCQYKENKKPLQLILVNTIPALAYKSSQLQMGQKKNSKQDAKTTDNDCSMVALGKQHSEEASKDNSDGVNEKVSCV
Description: (§1) The binding affinity of ligands for human 5-HT2A and 5-HT2C receptors was determined using the following assay.
Membrane preparations from CHO-K1 cells expressing the cloned human 5-HT2A receptor were obtained (Euroscreen). The membranes were thawed rapidly and diluted in assay buffer containing Tris-HCl (50 mM, pH 7.7). The membranes were resuspended by homogenisation, prior to adding 15 μg of membranes to assay wells containing [3H] ketanserin (1 nM), assay buffer (50 mM Tris at pH 7.4) containing pargyline (10 μM), and test compounds (1×10^−10 to 1×10^−4M). Non specific binding was determined in the presence of 100 μM mianserin. After 15 minutes incubation at 37° C., the assay mixture was filtered through a combination of GF-C and GF-B filters, pre-soaked in 0.05% Brij, using a Brandel cell harvester, and were washed three times using ice cold Tris-HCl buffer (50 mM). Radioactivity retained on the filters was determined by liquid scintillation counting. For each test compound, the concentration that inhibited binding of [^3H]ketanserin by 50% was determined using curve fitting software (Prism). Kd values (concentration of ketanserin required to occupy 50% of the receptor binding sites at equlibrium) determined from saturation binding studies were then used to calculate inhibition dissociation constants (Ki) using the following equation: […]

[3] = target: T3, cloned human 5-HT2C receptor (Homo sapiens, UniProt P28335); test: Human 5-HT2C receptor binding assay ([3H]mesulergine, CHO-K1 membranes); conditions: displacement of [3H]mesulergine (1 nM), read-out: 5-HT2C pKi (converted)
T3 construct: purchased Euroscreen; host or cells: CHO-K1 cells
T3 sequence (P28335 33-458): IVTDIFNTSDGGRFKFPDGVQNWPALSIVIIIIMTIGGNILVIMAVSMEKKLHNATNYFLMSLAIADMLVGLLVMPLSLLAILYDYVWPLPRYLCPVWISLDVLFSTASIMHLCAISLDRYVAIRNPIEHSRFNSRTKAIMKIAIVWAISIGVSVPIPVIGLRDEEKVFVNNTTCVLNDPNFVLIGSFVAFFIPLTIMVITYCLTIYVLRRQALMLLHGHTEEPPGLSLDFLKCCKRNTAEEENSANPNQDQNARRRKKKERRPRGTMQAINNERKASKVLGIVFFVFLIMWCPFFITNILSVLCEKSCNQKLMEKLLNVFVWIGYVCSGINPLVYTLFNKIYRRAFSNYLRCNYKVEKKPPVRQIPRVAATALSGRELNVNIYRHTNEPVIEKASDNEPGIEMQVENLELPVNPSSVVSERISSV
Description: as §1
Membrane preparations from CHO-K1 cells expressing the cloned human 5-HT2C receptor were obtained (Euroscreen). The membranes were thawed rapidly and diluted in assay buffer containing Tris-HCl (50 mM, pH 7.7), ascorbic acid (0.1%) and pargyline (10 μM). The membranes were resuspended by homogenisation, prior to adding 6 μg of membranes to assay wells containing [^3H] mesulergine (1 nM), assay buffer (50 mM Tris at pH 7.7 and 0.1% ascorbic acid) containing pargyline (10 μM), and test compounds (1×10^−10 to 1×10^−4M). Non specific binding was determined in the presence of 100 μM mianserin. After 30 minutes incubation at 37° C., the assay mixture was filtered through a combination of GF-C and GF-B filters, pre-soaked in 1% bovine serum albumin, using a Brandel cell harvester, and were washed three times using ice cold Tris-HCl buffer (50 mM). Radioactivity retained on the filters was determined by liquid scintillation counting. For each test compound, the concentration that inhibited binding of [3H]mesulergine by 50% was determined using curve fitting software (Prism). Kd values (concentration of mesulergine required to occupy 50% of the receptor binding sites at equlibrium) determined from saturation binding studies were then used to calculate inhibition dissociation constants (Ki) using the following equation: […]

[4] = target: T1, human cloned 5-HT2B receptors; test: Human cloned 5-HT2B cell-based functional assay (Fluo-4, CHO.K1 cells); conditions: inhibition of 5-HT response, CHO.K1 cells expressing cloned 5-HT2B, Fluo-4 AM
Description: The following describes an in vitro functional assay using human cloned 5-HT2B receptors to determine the ability of compounds to block the receptor. CHO.K1 cells expressing cloned 5-HT2B receptor were maintained In Ultra-CHO medium containing 400 μg/ml of G418, 100 U/ml penicillin, 100 μg/ml streptomycin, 2.5 μg/ml fungizone, in 95/5% O2/CO2 at 37° C. Ultra-CHO medium additionally supplemented with 1% foetal bovine serum was used when seeding the cells and removed after 5 hours. Cells were plated in Costar 96 well white, clear-bottomed plate at a density of 50,000 cells per well and incubated for at least 24 hours in 95/5% O2/CO2 at 37° C. before running the assay. Media was removed from the wells and 200 μl of 4 μM Fluo-4 AM added, this was incubated in a Wallace Victor 2V workstation at 37° C. for 30 minutes. The Fluo-4 AM was then removed from the wells, which were then washed twice with 200 μl of buffer (HBSS without calcium/magnesium/phenol red, 20 mM HEPES, 1 mM Ca^2+, 1 mM Mg^2+, 2.5 mM probenecid, pH to 7.4), 180 μl of buffer or test compound was added to the well and incubated for 30 minutes. The Victor 2V injectors were used to inject 20 μl of 5-HT after obtaining 10 0.1-second baseline readings at 535 nm, followed by 150 readings. All test compounds were aliquoted in 100% DMSO at 10 mM and diluted to 1 mM in 50% DMSO, subsequent dilutions were made using buffer. Buffer was also used to dilute the 5-HT. Data were analysed using Microsoft Excel and GraphPad Prism, with the latter used to produce sigmoidal dose-response curves for each compound. The compound concentration that inhibited the 5-HT response by 50% was taken (IC50-M), and the results are shown in Table 3, as pIC50, being the negative log (to the base 10) of the measured IC50 values.

T1 sequence (P41595 whole entry): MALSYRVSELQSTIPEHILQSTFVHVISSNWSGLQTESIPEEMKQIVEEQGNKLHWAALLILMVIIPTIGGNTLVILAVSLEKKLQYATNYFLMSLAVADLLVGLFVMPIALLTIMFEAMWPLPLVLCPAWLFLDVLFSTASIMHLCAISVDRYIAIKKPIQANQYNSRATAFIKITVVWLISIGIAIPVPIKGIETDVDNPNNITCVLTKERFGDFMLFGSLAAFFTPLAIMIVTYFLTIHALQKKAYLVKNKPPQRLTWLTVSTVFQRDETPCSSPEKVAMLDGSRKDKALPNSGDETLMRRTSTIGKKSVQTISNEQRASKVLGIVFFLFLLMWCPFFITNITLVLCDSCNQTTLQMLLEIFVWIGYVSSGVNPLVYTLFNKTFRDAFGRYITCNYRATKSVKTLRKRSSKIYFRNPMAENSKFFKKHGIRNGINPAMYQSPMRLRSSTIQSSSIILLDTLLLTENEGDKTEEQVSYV

CNc1nc(-c2cccc3ccccc23)co1 [Compound 2, 2-methylamino-4-(naphth-1-yl)oxazole]
Ki [1]: < 1 µM
Ki [2]: > 10 µM
Ki [3]: > 1 µM
IC50 [4]: < 10 µM
melting point: 164 to 166 °C

Cc1nc(N)oc1-c1cccc2ccccc12 [Compound 3, 2-amino-4-methyl-5-(naphth-1-yl)oxazole]
Ki [1]: < 0.01 µM
Ki [2]: > 10 µM
Ki [3]: > 10 µM
IC50 [4]: < 0.1 µM
melting point: 187 to 189 °C

Nc1nc(-c2ccc3ccccc3c2)co1 [Compound 16, 4-naphthalen-2-yl-oxazol-2-ylamine]
Ki [1]: < 1 µM
Ki [2]: > 10 µM
Ki [3]: > 10 µM
IC50 [4]: < 10 µM

COc1ccc2ccccc2c1-c1coc(NC(C)=O)n1 [Compound 25, N-[4-(2-methoxy-naphthalen-1-yl)-oxazol-2-yl]-acetamide]
Ki [1]: < 0.1 µM
Ki [2]: > 1 µM
Ki [3]: > 1 µM
IC50 [4]: < 1 µM
